Source: US20120058110A1, “Method for Predicting the Responsiveness to an Anti-TNF Alpha Antibody Treatment” (INSERM (INSTITUT NATIONAL DE LA SANTE ET DE LA RECHERCHE …, priority 2009, published 2012)
Entries after “also recorded” stand apart in the source; their conditions may differ.

Experiments:
sIL-15Rα = assay: Serum sIL-15Rα of CD patients before/after IFX (RIA); format: in vivo, human; conditions: responder patients
Procedure: (§1) The quantification of sIL-15Rα and IL-15 was determined as previously described (Mortier et al. J Immunol 2004; 173:1681-8). Sandwich RIAs were set up in which the goat anti-human IL-15Rα Ab AF247 or the mouse anti-human IL-15 Mab247 (R&D) was used as capture Ab and radio-iodinated anti-human IL-15Rα Ab M161 (GenMab; Copenhagen, Denmark) or radio-iodinated mouse anti human IL-15 BE-29 (Diaclone: Besançon, France) was used as tracer. A purified recombinant sIL-15Rα protein (Bernard et al. J Biol Chem 2004; 279:24313-22) and recombinant IL-15 (Peprotech) were used as standards. Capture Abs were coated (5 μg/mL; 50 μL/well) to high-adsorption Nunc maxisorp plates (Fisher Bioblock Scientific, Illkirch, France). Wells were saturated with PBS-BSA 0.5% for 15 min and samples (50 μL/well) were incubated for 1 h at 4° C. The M161 or BE-29 mAbs were iodinated using the iodogen method and then added (1 nM, 50 μL/well) for 1 h at 4° C. Supernatants of each well were collected and the wells washed twice with PBS. The radioactivity associated to the wells (bound fraction) and contained in the supernatants and washes (unbound fraction) were determined.

TNFα = assay: Serum TNFα of CD patients before/after IFX (WEHI 164 XTT bio-assay); format: in vivo, human
Procedure: TNFα concentrations were measured in the serum of 43 patients (33 responder patients, 10 non-responders). Quantification TNFα was performed by the XTT method using the murine cell line WEHI 164 (ATCC N^o CRL1751) (Espevik et al. J Immunol Methods 1986; 95:99-105). Cells were seeded in 96-well plates (3×10^4 cells/50 μL/well) and grown at 37° C. in RPMI 1640 supplemented with […] of glutamine, 10% heat-inactivated FCS, LiCl and actinomycin D. Sera from CD patients and healthy volunteers were serially diluted, added to wells and a purified recombinant TNFα (R&D) was used as standard. After 20 h of culture, 50 μL/well of XTT and electron coupling reagent was added and cell survival was determined by measuring the optical density at 450 nm. The sensitivity of the assay was 0.10 pg/mL. The TNFα upper normal limit was calculated by the mean+2 SD of the values obtained in the healthy volunteers.

patients with active CD = assay: Clinical response and CDAI in active CD patients treated with IFX; format: in vivo, human
Procedure: Clinical response for patients treated for perineal disease was assessed by the disappearance of draining fistulas. Blood samples were taken before each infusion and were centrifuged and stored at −80° C. Blood samples were also collected in 37 healthy volunteers. Forty patients with active CD were included in the study (12 males, 28 females, mean age 37.8 years). According to the Montreal classification, the disease was predominantly located into the colon (L2) or the ileocolon (L3) in 62.5 and 32.5% respectively and the disease was mostly non-stricturing and non-penetrating (B1). […] Six patients were treated by a combination of steroids and immunosuppressors, 3 patients received only steroids, 30 only immunosuppressors. Treatments were not modified except steroids which were always stopped between the first and the third infusion. There were no clinical and demographic differences between patients who experienced a response or not to IFX.

IL-15 = assay: Serum IL-15 of CD patients before/after IFX (RIA); format: in vivo, human
Procedure: as §1
The upper normal value of IL-15 (6.1 pM) was calculated by the mean+2 SD of the values measured in healthy volunteers.

[1] = system: soluble and cell-surface TNFα; conditions: cited from earlier work
human macrophages = assay: sIL-15Rα secretion by human macrophages cultured with IFX, etanercept, GM-6001; format: cell-based; conditions: for sIL-15Rα secretion: human macrophages, 8 h; for effect on sIL-15Rα secretion by macrophages: versus macrophages cultured without the agent
Procedure: as §1
Human monocytes were isolated from blood samples of healthy donors. PBMC were collected after Ficoll-Hypaque density centrifugation, resuspended at 7×10^6 cells/mL and allowed to adhere in culture flasks (RPMI 1640 supplemented with L-glutamine, streptomycin, penicillin, 10% FCS) for 1 h 30 at 37° C. Nonadherent cells were removed and adherent cells were washed five times with PBS. Monocytes were further differentiated for 5 days in the same medium supplemented with GM-CSF (100 ng/mL). […] After incubation, supernatants were obtained by centrifugation.

CD = conditions: in vivo; cited from earlier work
[2] = according to TNF and CRP levels and CDAI, 40 patients, 5 treated twice (45 courses)
[3] = 0.01 μg/mL IFX or etanercept, cells without IFX 2.0±0.6 pM
[4] = experiment with GM-6001 0.2 nM, IFX 0.01 μg/mL, control 1.4±0.9 pM

Chain of soluble and cell-surface TNFα (P01375 77-233 limits assumed): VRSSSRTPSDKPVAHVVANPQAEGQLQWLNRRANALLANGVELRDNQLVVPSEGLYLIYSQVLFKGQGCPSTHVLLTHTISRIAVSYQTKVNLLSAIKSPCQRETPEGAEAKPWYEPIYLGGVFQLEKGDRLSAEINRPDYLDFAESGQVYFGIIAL

Row | Compound | increase of the proportion of patients with detectable sIL-15Rα after IFX (sIL-15Rα) [%] | non-responder patients in whom TNF remained above the control value (TNFα; week 6, 9/10) [%] | responder patients with individual TNFα values dropping to control ranges (TNFα; week 6, 20/33) [%] | responder patients in whom TNFα decreased (TNFα; week 6, 31/33) [%] | patients classified as non-responders to IFX (patients with active CD; [2]) [patients] | patients classified as responders to IFX (patients with active CD; [2]) [patients] | patients with mucosal healing (patients with active CD; three biopsied CD patients, all with clinical responses) | median IL-15 levels after IFX (IL-15; non-responder patients, serum) | patients in whom IL-15 was undetectable after IFX (IL-15; responder patients, 15/35, before IFX 26% (9/35)) [%] | patients in whom IL-15 dropped below the control value (IL-15; responder patients, 29/35, after IFX) [%] | binding to soluble and cell-surface TNFα [1] | sIL-15Rα secretion (human macrophages; [3]) [pM] | sIL-15Rα secretion (human macrophages; [4]) [pM] | effect on sIL-15Rα secretion by macrophages (human macrophages) | inducing effect of IFX on sIL-15Rα secretion (human macrophages; GM-6001 added with IFX) | basal sIL-15Rα secretion (human macrophages; GM-6001 alone versus control cells) | efficacy in CD (CD)
1 | IFX: anti-TNFα monoclonal antibody, a mouse-human chimeric whole antibody (Remicade; Centocor) | 38 | 90 | 61 | 94 | 10 | 35 | two | not modified | 43 | 83 | high affinity and specificity | 18.0 ± 1.2 | 22.4 ± 2.0 | increased significantly; also recorded: induced; also recorded: markedly increased | – | – | –
2 | CNC(=O)[C@H](Cc1c[nH]c2ccccc12)NC(=O)[C@@H](CC(=O)NO)CC(C)C [GM-6001] | – | – | – | – | – | – | – | – | – | – | – | – | 4.5 ± 3.0 | – | completely inhibited | not modified; also recorded: did not affect | –
3 | etanercept | – | – | – | – | – | – | – | – | – | – | – | 6.3 ± 0.9 | – | did not significantly affect; also recorded: did not induce | – | – | inefficient in CD; also recorded: poor efficacy
